Laboratory results from patent EP4245832B1, “DETERGENT COMPOSITIONS” (The Procter & Gamble Company, priority 2022, dated 2023).

Experiment: Laundry test followed by SPME GC/MS headspace analysis of cotton tracers
Conditions: headspace of the perfume ingredient above wet cotton tracers, Ex 1 (PQ22) versus Ex A (nil-PQ22)
Experimental: 100% cotton fabric cut into 30x30cm squares were washed in a mixed cotton/polycotton load of total 3kg in a front load washing machine (Miele 1935) at 40°C cotton short setting, with 2 rinses, using 2.67 mmol/L Ca (15 gpg) water hardness. A 55 ml dose of the respective detergent was added to a dosing cup and placed inside the washing machine. After the wash cycle was finished, the full load was tumbled (using a Miele Novotronic, type: TD7634) for about 1 hour. Table 1: Inventive detergent composition (Ex 1) and comparative laundry detergent composition (Ex A) used in the laundry test:
The load was washed and dried three consecutive times, then placed back into a washing machine After a fourth wash cycle, the wet cotton tracers were separated and packed in aluminium foil until they were ready to be analysed for headspace.
The headspace was analysed using solid […] (SPME) chromatography using the following procedure: • 1. One piece of 4x4 cm cotton tracers were transferred to 25 ml headspace vials. • 2. The fabric samples were equilibrated for 10 minutes at 65°C. • 3. The headspace above the fabrics was sampled via SPME (50/30µm DVB/Carboxen/PDMS) for 5 minutes. • 4. The SPME fiber was subsequently thermally desorbed into the GC. • 5. The analytes were analyzed by GC/MS (GC: Agilent 8890 and MS: Agilent 5977B MS) in full scan mode. The total perfume HS response and perfume headspace composition above the tested legs could be determined.

Molecule | % increase Ex 1 vs Ex A
C=CC(C)(O)CCC=C(C)C (stereo not shown) [Linalool, 3,7-dimethylocta-1,6-dien-3-ol] | 42%
CC(C)=CCCC(C)CC#N (stereo not shown) [Citronellyl nitrile, 3,7-dimethyloct-6-enenitrile] | 457%
CC(=O)c1ccc2ccccc2c1 [Methyl Beta-napthyl ketone, 1-(naphthalen-2-yl)ethan-1-one] | 268%
CCOC(=O)C1=C(C)C=CCC1(C)C [Ethyl safranate, ethyl 2,6,6-trimethylcyclohexa-1,3-diene-1-carboxylate] | 26%
CCCC(=O)OCCC(C)C [Isoamyl butyrate, isopentyl butyrate] | 8685%
CC(C)=CCCC(C)CCO (stereo not shown) [Citronellol, 3,7-dimethyloct-6-en-1-ol] | 108%
CC(=O)/C=C/C1=C(C)CCCC1(C)C [Ionone beta, (E)-4-(2,6,6-trimethylcyclohex-1-en-1-yl)but-3-en-2-one] | 18%
CC(C=O)Cc1ccc(C(C)(C)C)cc1 (stereo not shown) [Lilial, 3-(4-(tert-butyl)phenyl)-2-methylpropanal] | -55%
COc1ccc(C)cc1 [Para cresyl methyl ether, 1-methoxy-4-methylbenzene] | 13731%
C=CC(C)(CCC=C(C)C)OC(=O)CC (stereo not shown) [Linalyl propionate, 3,7-dimethylocta-1,6-dien-3-yl propionate] | -50%
C=C(C)C1CC=C(C)C(=O)C1 (stereo not shown) [Laevo carvone, 2-methyl-5-(prop-1-en-2-yl)cyclohex-2-en-1-one] | 468%
CCC(=O)OCC(C)(C)OC(C)C1CCCC(C)(C)C1 (stereo not shown) [Helvetolide, 2-(1-(3,3-dimethylcyclohexyl)ethoxy)-2-methylpropyl propionate] | -50%
CCCCCCCC=O [Octyl Aldehyde, octanal] | 16%
CC1=CCC2CC1C2(C)C (stereo not drawn) [Alpha pinene, 2,6,6-trimethylbicyclo(3.1.1)hept-2-ene] | -33%
O=C1CCCCCCCCCCCCCCO1 [Exaltolide total, oxacyclohexadecan-2-one] | -33%
CCOC(=O)C1OC1(C)c1ccccc1 (stereo not shown) [Ethyl methyl phenyl glycidate, ethyl 3-methyl-3-phenyloxirane-2-carboxylate] | inf
3-(3,3-dimethyl-2,3-dihydro-1H-inden-5-yl)propanal mixt. wth 3-(1,1-dimethyl-2,3-dihydro-1H-inden-5-yl)propanal [Neo Hivernal] | -58%
CC1/C=C/CCCCCCCCCCC(=O)C1 (stereo not shown) [Delta muscenone, (E)-3-methylcyclopentadec-4-en-1-one] | -27%
CC(=O)OCc1ccccc1 [Benzyl acetate, benzyl acetate] | 1840%
COc1ccc2ccccc2c1 [Beta napthol methyl ether, 2-methoxynaphthalene] | 104%
COC(=O)c1ccccc1O [Methyl salicylate, methyl 2-hydroxybenzoate] | 915%
COc1ccc(C=O)cc1 [Anisic aldehyde, 4-methoxybenzaldehyde] | 854%
C=CCOC(=O)COCCC(C)C [Allyl amyl glycolate, allyl 2-(isopentyloxy)acetate] | 2003%
CC(C)(O)CCc1ccccc1 [Phenyl ethyl dimethyl carbinol, 2-methyl-4-phenylbutan-2-ol] | 1106%
CC(C)c1cccc(C(C)CC=O)c1 (stereo not shown) [Florhydral, 3-(3-isopropylphenyl)butanal] | -60%
